We go through 4 molecules from patent publication US8133907B2, “Pyridine derivatives as dipeptedyl peptidase inhibitors” (Eli Lilly and Company, priority 2005, dated 2012).

Structures can show the parent of a compound that is named as a salt.

T1 sequence (P27487 29-766 limits assumed): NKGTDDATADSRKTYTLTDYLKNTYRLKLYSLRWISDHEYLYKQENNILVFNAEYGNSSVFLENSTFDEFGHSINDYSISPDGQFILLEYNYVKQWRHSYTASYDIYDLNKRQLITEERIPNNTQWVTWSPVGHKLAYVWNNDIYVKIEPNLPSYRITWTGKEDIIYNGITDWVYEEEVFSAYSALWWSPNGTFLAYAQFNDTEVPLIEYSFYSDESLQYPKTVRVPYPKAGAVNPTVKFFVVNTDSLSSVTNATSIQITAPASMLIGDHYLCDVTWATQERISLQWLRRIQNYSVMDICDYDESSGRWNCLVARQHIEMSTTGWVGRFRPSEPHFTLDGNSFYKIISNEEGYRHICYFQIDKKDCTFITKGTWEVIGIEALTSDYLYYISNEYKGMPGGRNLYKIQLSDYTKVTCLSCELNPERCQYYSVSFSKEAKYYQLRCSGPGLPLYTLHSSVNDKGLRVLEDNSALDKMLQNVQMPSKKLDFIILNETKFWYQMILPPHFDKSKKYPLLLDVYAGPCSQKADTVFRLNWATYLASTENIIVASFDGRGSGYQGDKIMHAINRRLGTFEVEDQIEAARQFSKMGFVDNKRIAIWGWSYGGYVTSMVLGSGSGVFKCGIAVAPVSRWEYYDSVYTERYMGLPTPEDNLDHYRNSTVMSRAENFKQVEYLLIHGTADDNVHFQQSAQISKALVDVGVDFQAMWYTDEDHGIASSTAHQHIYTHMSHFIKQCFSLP

The test concerns the target T1, human recombinant DPIV enzyme (Homo sapiens, UniProt P27487).
T1 construct: Secreted DPIV (lacking membrane anchor) is enriched from HEK293 cell culture supernatant; made in house; host or cells: HEK293
As to the kind of experiment: Human Recombinant DPIV Activity Assay (fluorometric end point, Gly-Pro-AMC substrate). The class given is biochemical. Conditions: enriched human recombinant DPIV enzyme (21.3 μU/μl), Gly-Pro-AMC 0.02 mM, 12 points concentration response curve, duplicate. On the procedure: Human Recombinant DPIV Activity Assay
The DPIV assay uses a fluorometric end point assay (excitation 355 nm; emission 460 nm), enriched human recombinant DPIV enzyme (21.3 μU/μl), and Gly-Pro-AMC (Bachem I-1225) as substrate (0.02 mM). Secreted DPIV (lacking membrane anchor) is enriched from HEK293 cell culture supernatant by ultrafiltration, ultra-centrifugation, and size-exclusion chromatography. IC50 values of the compounds are calculated based on a 12 points concentration response curve. Each concentration is measured in duplicate. The assay is validated by plate variability and conformity, inter-plate variability, signal window, and minimum significant ration of IC50. A MSR is calculated based on a test/retest analysis and a retrospective analysis. The MSR value is 1.8.
As a reminder, the IC50 is the concentration that inhibits the measured activity by half. For `CC(C)(C)NC(=O)c1cccnc1C[C@H](O)[C@H](N)Cc1cc(F)ccc1C(F)(F)F` (racemic) [Example 10, 2-[(2SR,3RS)-3-Amino-4-(5-fluoro-2-trifluoromethylphenyl)-2-hydroxybutyl]-N-tert-butylnicotinamide Dihydrochloride], the IC50 worked out at 342 nM. For the molecule `Cc1ccc(C)c(C[C@@H](N)[C@@H](O)Cc2ncccc2C(=O)NC(C)(C)C)c1` [Example 8, 2-[(2S,3R)-3-Amino-4-(2,5-dimethyl-phenyl)-2-hydroxy-butyl]-N-tert-butyl-nicotinamide Dihydrochloride], the IC50 was determined as 30 nM. In the case of `CC(C)(NC(=O)c1cccnc1C[C@H](O)[C@H](N)Cc1ccccc1F)c1ccccc1` [Example 23, 2-[(2S,3R)-3-Amino-4-(2-fluoro-phenyl)-2-hydroxy-butyl]-N-(1-methyl-1-phenyl-ethyl)-nicotinamide Dihydrochloride], the IC50 turned out to be 22 nM.

Turning to `N[C@H](Cc1ccccc1F)[C@@H](O)Cc1ccccn1` [Example 27, (2S,3R)-3-Amino-4-(2,-fluoro-phenyl)-1-pyridin-2-yl-butan-2-ol Dihydrochloride], the IC50 is 232 nM.
